# From patent US8236533B2, “Process for the production of γ-glutamylcysteine” (NewSouth Innovations PTY Limited, priority 2005, dated 2012)
# Several values for one entry are separate records, joined by “and”; a condition that tells them apart may be missing. Equal values may be shown once.
# How the values were obtained:
# [1] = physchem
# [2] = isoelectric point (pI); assay type: physicochemical
# [3] = aqueous solubility
# [4] = test system: glutathione levels; test: utilization of GGC in mice: glutathione levels; assay type: in vivo; details: preliminary studies
# Excerpt: The final form of GGC, whether it be in the reduced state as γ-glutamylcysteine or in the disulphide form as bis-γ-glutamylcystine, is dependent on the final application of the dipeptide. […] The oxidised form bis-γ-glutamylcystine is more likely to be suitable for application as a nutraceutical supplement as no special precautions to prevent the oxidation of the sulphydryl, would be required, whereas application in the treatment of poisoning or as an antioxidant in food or cosmetics would require the reducing power of the sulphydryl of γ-glutamylcysteine. Whatever the desired form, both are relatively easily interconverted by reduction which can be achieved either chemically (Jocelyn, P. C., Chemical reduction of disulfides. Methods in Enzymology, 1987. 143: p. 246-56), electrochemically (Genders, J. D., N. L. Weinberg, and D. J. Mazur, High yield methods for electrochemical preparation of cysteine and analogues. 1988, U.S. Pat. No. 5,106,463. The Electrosynthesis Company, Inc.) or oxidized to the disulphide form simply by exposing a solution to air (oxygen) with a trace amount of copper or iron salt added to catalyse the reaction.
# [5] = stability on removal of water by evaporation; assay type: physicochemical; details: temperatures above 40° C.
# Method: Example 13 describes purification of GGC from a mixture comprising GGC and 2-mercaptoethanol, with subsequent freeze-drying. However, it is not expected that freeze drying would be an economic option at industrial scale. Removal of water by conventional evaporation at temperatures above 40° C. results in degradation of the product. However, a process of concentration by nanofiltration is expected to be most suitable at industrial scale as it is both low temperature and a cost effective method for water removal. […] After the removal of the majority of water by nanofiltration and a pH adjustment to the pH of the isoelectric point (GGC=pH 2.8) the addition of an antisolvent such as ethanol or acetone can be added to initiate spontaneous crystallization. The final product can be collected by filtration and dried under reduced pressure.
# [6] = physchem; details: pH 9.1, aqueous with cosolvent or surfactant or cyclodextrin, thermodynamic from solid
smiles,measurement,setting,value
"COC(=O)[C@@H](N)CSSC[C@H](N)C(=O)OC.Cl.Cl [CDME, cystine dimethyl ester dihydrochloride]",solubility,[1],> 20 mg/mL
"N[C@@H](CSSCCO)C(=O)O [Cys-Merc, cysteine-mercaptoethanol mixed disulphide]",isoelectric point (pI),[2],5.2 and 5.3
same,aqueous solubility,[3],~20 mg/mL
"CCOC(=O)CC[C@H](N)C(=O)O [GEE, glutamic acid γ-ethyl ester]",isoelectric point (pI),[2],5.8
"N[C@@H](CCC(=O)N[C@@H](CS)C(=O)O)C(=O)O [GGC, γ-Glutamylcysteine]",glutathione levels after administration,[4],significantly increase glutathione levels
same,stability on conventional evaporation of water,[5],degradation
same,isoelectric point (pI),[2],2.8
"N[C@@H](CCC(=O)NC(CSSCCO)C(=O)O)C(=O)O (stereo partly shown) [GGC-Merc, γ-glutamylcysteine-mercaptoethanol disulphide]",isoelectric point (pI),[2],3.0
"N[C@@H](CCC(=O)Nc1ccc([N+](=O)[O-])cc1)C(=O)O [GPNA, L-γ-glutamyl-p-nitroanilide]",solubility limit,[3]; pH 8.5 in 100 mM phosphate buffer,8.4 mM
CC(=O)NCSC[C@H](N)C(=O)O [S-acetamidomethylcysteine],solubility,[3]; water,2000 mM
N[C@@H](CCC(=O)N[C@@H](CSSC[C@H](NC(=O)CC[C@H](N)C(=O)O)C(=O)O)C(=O)O)C(=O)O [bis-γ-glutamylcystine],glutathione levels after administration,[4],significantly increase glutathione levels
N[C@@H](CSSC[C@H](N)C(=O)O)C(=O)O [cystine],solubility,[6]; 50% DMF in diethanolamine (DEA) buffer,~30 mM
same,solubility,[6]; 50% DMF in water,~9 mg/mL
same,solubility,"[3]; aqueous solution, pH 3, aqueous buffer",0.1 mg/mL
same,solubility,"[3]; phosphate buffer, pH 8.5, aqueous buffer",16.6 mM
same,solubility,"[3]; water, 37 °C, pH 9.1, water",~5 mg/mL
